From PMC3254236 (Bioorganic & Medicinal Chemistry, 2011)
pEC50: −log10 of the molar value.

molecular target: T1, full length murine FXR (Mus musculus, UniProt Q60641); experiment: Reporter gene assay for FXR activation; assay type: cell-based; conditions: Ganoderma constituents 10 μM; normalized to CDCA 25 μM
T1 sequence (Q60641 1-488): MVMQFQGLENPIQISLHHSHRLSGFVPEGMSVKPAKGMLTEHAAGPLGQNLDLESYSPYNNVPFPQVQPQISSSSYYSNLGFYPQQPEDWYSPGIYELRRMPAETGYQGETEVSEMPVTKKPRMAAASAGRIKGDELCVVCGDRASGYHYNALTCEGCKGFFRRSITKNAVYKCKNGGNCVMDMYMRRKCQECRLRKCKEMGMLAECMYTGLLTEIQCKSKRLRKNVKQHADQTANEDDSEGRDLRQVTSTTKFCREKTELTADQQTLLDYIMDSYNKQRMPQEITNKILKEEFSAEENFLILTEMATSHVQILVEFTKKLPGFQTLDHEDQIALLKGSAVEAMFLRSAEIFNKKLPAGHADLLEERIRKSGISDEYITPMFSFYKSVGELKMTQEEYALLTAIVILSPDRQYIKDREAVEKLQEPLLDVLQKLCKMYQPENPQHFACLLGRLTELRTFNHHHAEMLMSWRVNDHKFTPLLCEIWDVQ
T1 sequence (P28700 1-467 partner): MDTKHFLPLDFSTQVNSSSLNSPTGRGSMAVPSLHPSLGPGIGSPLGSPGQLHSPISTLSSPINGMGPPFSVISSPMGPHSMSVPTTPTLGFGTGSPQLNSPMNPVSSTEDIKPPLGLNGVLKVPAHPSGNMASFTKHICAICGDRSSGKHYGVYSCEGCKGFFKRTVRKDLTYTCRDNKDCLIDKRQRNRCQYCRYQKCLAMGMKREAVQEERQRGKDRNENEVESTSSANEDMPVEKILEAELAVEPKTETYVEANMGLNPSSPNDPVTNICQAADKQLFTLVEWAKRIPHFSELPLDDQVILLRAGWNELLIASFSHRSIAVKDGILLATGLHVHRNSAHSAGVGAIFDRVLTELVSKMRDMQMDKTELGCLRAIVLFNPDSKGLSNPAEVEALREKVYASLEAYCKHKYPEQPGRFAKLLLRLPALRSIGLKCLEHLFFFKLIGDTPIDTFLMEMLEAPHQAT

**Q.** `CC(C)[C@@H](C)/C=C/[C@@H](C)[C@H]1CC[C@@H]2[C@]1(C)CC[C@H]1[C@]23C=C[C@]2(C[C@@H](O)CC[C@]12C)OO3` [Compound 2, ergosterol peroxide] was tested. Which “Induction of FXR-dependent transcription” value did it give?
**A.** reached statistical significance

**Q.** For `C[C@H](CC[C@H](O)C(C)(C)O)[C@H]1CC[C@@]2(C)C3=C(CC[C@]12C)[C@@]1(C)CCC(=O)C(C)(C)[C@@H]1CC3=O` [Compound 11, lucidumol A], which “Induction of FXR-dependent transcription” value is on record?
**A.** reached statistical significance

**Q.** How did the “Induction of FXR-dependent transcription” value turn out when `C[C@H](CC[C@H](O)[C@](C)(O)CO)[C@H]1CC[C@@]2(C)C3=CC[C@H]4C(C)(C)C(=O)CC[C@]4(C)C3=CC[C@]12C` [Compound 13, ganodermanontriol] was run?
**A.** reached statistical significance

**Q.** With `C[C@H](CCC=C(CO)CO)[C@H]1CC[C@@]2(C)C3=CC[C@H]4C(C)(C)C(=O)CC[C@]4(C)C3=CC[C@]12C` [Compound 14, ganoderiol F] as the molecule, how does the “Induction of FXR-dependent transcription” value read?
**A.** reached statistical significance

**Q.** With ganoderic acid TR [Compound 12] as the molecule, how does the “Induction of FXR-dependent transcription” value read?
**A.** reached statistical significance

same assay, conditions: dose-dependent FXR reporter activation; test concentrations 0.1-50 μM

**Q.** With ganoderic acid TR [Compound 12] as the molecule, how does the pEC50 read?
**A.** < 4.85

same assay, conditions: pure compounds 10 μg/mL; compared with CDCA 25 μM

**Q.** Which “FXR induction (percent of CDCA)” value does the source give for `COc1ccc(-c2oc3cc(OC)c(OC)c(O)c3c(=O)c2OC)cc1OC` [artemisetin] here?
**A.** activated FXR significantly, but at lower extent than CDCA

**Q.** Which “FXR induction (percent of CDCA)” value does the source give for `COc1cc(CNC(=O)CCCCCCC(C)C)ccc1O` [dihydrocapsaicin] here?
**A.** No activation

**Q.** How did the “FXR induction (percent of CDCA)” value turn out when `C=CC(C)(C)c1cc2cc3c(cc2oc1=O)OC(C(C)(C)OC(C)=O)C3` (stereo not drawn) [rutamarin] was run?
**A.** activated FXR significantly, but at lower extent than CDCA
